Experimental data taken from US20110160121A1, “UNACYLATED GHRELIN AND ANALOGS AS THERAPEUTIC AGENTS FOR VASCULAR REMODELING IN DIABETIC PATIENTS AND TREATMENT OF CARDIOVASCULAR DISEASE” (ALIZE PHARMA SAS, priority 2008, published 2011).
Where no end group is shown, it is not given here.

Legend:
p53, p21, pRb = assay: Western blot of p53, p21, phospho-Rb in CAC recovered from UAG-treated diabetic patients; set-up: species or system human; settings: type 2 diabetic patients, UAG administered in vivo, CAC recovered after 12 hours; FIG. 2E
Protocol: After 12 hours of treatment, CAC were recovered from UAG treated and untreated patients and cultured.
(§1) All the subjects underwent the following testing session: • UAG (3.0 μg/kg/h iv. as infusion for 12 h from 0 to 12 hours); • isotonic saline (infusion from 0 to 12 hours).
Western Blot Analysis—CAC from healthy donors cultured in the presence of UAG, in combination or not with AGE, and CAC recovered from diabetic patients treated with saline or UAG were lysed. Protein concentration was detected as previously described (Ref. 24). 50 μg of proteins were separated on SDS-polyacrylamide gels and transferred to nitrocellulose membranes. Reaction with anti-p53, anti p21 and anti-phospho-Rb antibodies and detection with an enhanced chemiluminescence detection system (Amersham Biosciences) were performed as described previously (Ref. 20).

CAC [1] = assay: CAC cell-cycle progression (percentage of cells in S phase, FACS); assay type: cell-based, human; settings: cultured CAC; effect still evident after 7 days of culture; FIG. 1A
Protocol: First, cell-cycle progression in response to UAG and AG was evaluated. […] To investigate whether this effect relies on inhibition of baseline ROS production, DCF-DA assay was performed. […] H2O2 was used as positive control. AGE-mediated damage signals mainly rely on ROS production (Ref. 29). […] Isolation and Culture of CAC from Peripheral Blood Mononuclear Cells—Peripheral-blood mononuclear cells (PB-MNC) isolated by Fycoll Histopaque 1077 (Sigma) were resuspended in 20% FBS 199 Medium and plated on fibronectin-coated dishes (Biocoat, Becton Dickinson Labware) as described by Hill et al. (Ref. 19). Human UAG studies were performed on CAC recovered from normal donors and diabetic patients. The purity of sorted cells was assessed by FACS analysis (Ref. 20). For experiments, the isolated CAC were cultured under 5% CO2 at 37° C. for 4 days on 20 μg/ml fibronectin-coated dishes in EGM-2 medium containing 10% FBS, hydrocortisone, human Fibroblast Growth Factor, Vascular Endothelial Growth Factor, Insulin Growth Factor 1, ascorbic acid, human Epidermal Growth Factor, gentamicin and amphotericin-B (Cambrex, Walkersville, Md., USA) alone or in combination with 1 μM UAG and 1.2 mg/ml AGE. […] Cell surface molecules were evaluated by flow cytometry as previously described (Ref. 24). Frequency of marker-positive cells is expressed as mean±standard deviation (SD).

CAC [2] = assay: CAC mobilization assay in diabetic mice (NOD/SCID, ob/ob); assay type: in vivo, mouse; settings: FIG. 4B
Protocol: To further confirm data obtained by treating patients and healthy controls with UAG, two different mouse models of diabetes were used. NOD/SCID mice and ob/ob mice were treated for different time intervals with saline or UAG. The person skilled in the art will be familiar with the NOD/SCID mice and ob/ob mice models.
After treatment, cells were recovered, assayed by FACS analysis, counted and cultured. […] Black lines refer to preimmune IgG used as negative control and grey lines refer to surface marker expression. Similar results were obtained when CAC from untreated diabetic mice as well as untreated or treated wild-type mice were analyzed (data not shown).
Diabetic and control mice—Mice were divided in four groups. The plasma glucose and insulin determination for each group are reported. Sixteen 6 weeks old ob/ob mice (blood glucose, 600±45 mg/dL, insulin, 5.5±0.9 ng/ml); sixteen C56BL6/J wild type mice (blood glucose, 150±18.2 mg/dL, insulin, 1±0.05 ng/ml); ten 7 weeks old NOD/SCID mice (blood glucose, 164±12.9 mg/dL, insulin 1.2±.0.12 ng/ml); ten 17 weeks old NOD/SCID mice (blood glucose, 536±36.3 mg/dL, insulin 4.85±0.74 ng/ml). Animal procedures conformed to the Guide for Care and Use of […] (National Institutes of Health publication no. […], revised 1985).
Mobilization assay—Mice were treated for 12 hours with UAG or saline. CAC recovered and purified as above described, were put in culture and counted by three independent investigators. The technical ratio of CAC was calculated by comparing the numbers of CAC/μL of blood drawn from left ventricular.

CAC [3] = assay: CAC mobilization assay in healthy subjects and diabetic patients; assay type: in vivo, human; settings: diabetic patients compared to normal subjects, treated for 6 hours; FIG. 3B
Protocol: This observation led to investigate the effect of UAG treatment on BM CAC mobilization. To this end, normal subject and diabetic patients were treated with UAG or saline for 6 hours. After treatment, CAC were recovered from 4 control subjects and 4 diabetic patients, analyzed by FACS analysis and counted. […] Black lines refer to preimmune IgG used as negative control and grey lines refer to surface marker expression. Similar results were obtained when CAC from untreated diabetic patients or untreated or treated healthy subjects were analyzed (data not shown).
as §1
Mobilization assay—CAC recovered from healthy subjects and diabetic patients, treated with UAG or saline for 6 h and 12 h, were evaluated. Total number of MNC was counted by 3 independent investigators. The percentage of CAC was calculated by comparing CAC obtained from diabetic patients and healthy donors, treated for 6 h and 12 h with UAG, AG or saline, to CAC recovered at time 0.

CAC [4] = assay: Arterial morphogenesis by Q-RT-PCR (Ephrin B2, Notch1, Notch4, EphB4) of CAC from treated patients; assay type: in vivo, human; settings: cells obtained from treated patients, cultured with IL-3; FIG. 3D
Protocol: To confirm their vascular features, the cells recovered from patients and controls were cultured with IL-3; which is able to induce expansion and arterial morphogenesis of CD45^+ cells derived from both peripheral blood and BM (Ref. 28).
RNA isolation and quantitative real-time PCR—CAC from diabetic patients, healthy subjects and mice treated with UAG or saline were cultured in EGM-2 medium. Human arterial and venous cells were used as a positive controls. mRNA quantification was performed by Q-RT-PCR, as previously described (Ref. 24). The relative expression of Ephrin B2, Notch1, Notch4 and EphB4 were calculated by using comparative threshold cycle methods. The human and murine primer sequences used were described (Refs. 25, 26).

## 1-NH2Gly-Ser-Ser-Phe-Leu-Ser-Pro-Glu-His-Gln-Arg-Val-Gln-Gln-Arg-Lys-Glu-Ser-Lys-Lys-Pro-Pro-Ala-Lys-Leu-Gln-Pro-Arg-28 (H-GSSFLSPEHQRVQQRKESKKPPAKLQPR; ends and bridges not checked; listed as Homo sapiens) [UAG]
p53, p21, pRb
  p53 accumulation, phosphorylation of Rb and p21 expression: prevented p53 accumulation, phosphorylation of Rb and p21 expression
CAC [1]
  percentage of cells in S phase: significant increase in the percentage of cells in S phase
CAC [2]; UAG-treated ob/ob mice vs untreated wild type mice
  number of CAC relative to untreated wild type mice: fully restores the number of CAC to normal physiological levels
CAC [2]; diabetic NOD/SCID mice
  percentage of recovered cells (CAC): increase the percentage of recovered cells
CAC [2]; ob/ob mice
  number of circulating CAC: increased number of circulating CAC
CAC [3]
  number of recovered cells (CAC): strong increase in the number of recovered cells
CAC [4]
  arterial specification (Ephrin B2, Notch1, Notch4; EphB4): able to undergo arterial specification
